Laboratory results taken from the supplement of paper PMC10307832.

Assays:
Test in all cases: relative viability (nuclei count vs DMSO), 5 days (fraction); higher = more cells survive
BI-D1870 + Luminespib = compound: CC(C)CCN1c2nc(Nc3cc(F)c(O)c(F)c3)ncc2N(C)C(=O)C1C [BI-D1870] + CCNC(=O)c1noc(-c2cc(C(C)C)c(O)cc2O)c1-c1ccc(CN2CCOCC2)cc1 [Luminespib] (partner 0.01 µM)
How it was run: (§1)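 For relative viability, nuclei counts in treated wells were divided by those in vehicle wells. Lung cancer cell lines had been pin-tool dosed in 1536-well plates the day after seeding and cultured for 5 days, then fixed and stained in one step (final 0.05% Triton X-100, 1% formaldehyde, 1 ug/ml Hoechst) and imaged at 4×. Doses were one drug alone or a fixed anchor-drug dose plus five library-drug doses (not always all listed) in √10 steps, and values are duplicate-plate medians.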

Zebularine + Trametinib = compound: O=c1ncccn1[C@@H]1O[C@H](CO)[C@@H](O)[C@H]1O [Zebularine] + CC(=O)Nc1cccc(-n2c(=O)n(C3CC3)c(=O)c3c(Nc4ccc(I)cc4F)n(C)c(=O)c(C)c32)c1 [Trametinib] (partner 0.02 µM)
How it was run: as §1

Zebularine + Linsitinib = compound: O=c1ncccn1[C@@H]1O[C@H](CO)[C@@H](O)[C@H]1O [Zebularine] + C[C@]1(O)C[C@@H](c2nc(-c3ccc4ccc(-c5ccccc5)nc4c3)c3c(N)nccn32)C1 [Linsitinib] (partner 1 µM)
How it was run: as §1

Zebularine + Decitabine = compound: O=c1ncccn1[C@@H]1O[C@H](CO)[C@@H](O)[C@H]1O [Zebularine] + Nc1ncn([C@H]2C[C@H](O)[C@@H](CO)O2)c(=O)n1 [Decitabine] (partner 2 µM)
How it was run: as §1

| Cell Line | relative viability (BI-D1870 + Luminespib; first compound 0.04 µM) | relative viability (BI-D1870 + Luminespib; first compound 0.1265 µM) | relative viability (BI-D1870 + Luminespib; first compound 0.4 µM) | relative viability (BI-D1870 + Luminespib; first compound 1.265 µM) | relative viability (BI-D1870 + Luminespib; first compound 4 µM) | relative viability (Zebularine + Trametinib; first compound 1 µM) | relative viability (Zebularine + Trametinib; first compound 3.162 µM) | relative viability (Zebularine + Trametinib; first compound 10 µM) | relative viability (Zebularine + Trametinib; first compound 31.62 µM) | relative viability (Zebularine + Trametinib; first compound 100 µM) | relative viability (Zebularine + Linsitinib; first compound 1 µM) | relative viability (Zebularine + Linsitinib; first compound 3.162 µM) | relative viability (Zebularine + Linsitinib; first compound 10 µM) | relative viability (Zebularine + Linsitinib; first compound 31.62 µM) | relative viability (Zebularine + Linsitinib; first compound 100 µM) | relative viability (Zebularine + Decitabine; first compound 1 µM) | relative viability (Zebularine + Decitabine; first compound 3.162 µM) | relative viability (Zebularine + Decitabine; first compound 10 µM) | relative viability (Zebularine + Decitabine; first compound 31.62 µM) | relative viability (Zebularine + Decitabine; first compound 100 µM) |
| --- | --- | --- | --- | --- | --- | --- | --- | --- | --- | --- | --- | --- | --- | --- | --- | --- | --- | --- | --- | --- |
| NCI-H2085 | 0.483 | 0.452 | 0.503 | 0.407 | 0.364 | 0.491 | 0.547 | 0.522 | 0.433 | 0.392 | 1.18 | 0.878 | 0.76 | 0.887 | 0.428 | 0.543 | 0.506 | 0.487 | 0.576 | 0.508 |
| NCI-H2087 | 0.165 | 0.18 | 0.206 | 0.213 | 0.186 | 0.195 | 0.166 | 0.204 | 0.206 | 0.142 | 1.11 | 1.09 | 0.501 | 0.67 | 0.29 | 0.322 | 0.294 | 0.207 | 0.279 | 0.223 |
| NCI-H2126 | 0.899 | 0.767 | 0.866 | 0.915 | 0.769 | 0.532 | 0.561 | 0.476 | 0.557 | 0.437 | 0.743 | 0.644 | 0.668 | 0.624 | 0.478 | 0.582 | 0.629 | 0.585 | 0.608 | 0.396 |
| NCI-H2347 | 0.738 | 0.376 | 0.367 | 0.48 | 0.402 | 0.294 | 0.299 | 0.237 | 0.312 | 0.235 | 1.04 | 0.99 | 0.854 | 0.724 | 0.478 | 0.658 | 0.598 | 0.544 | 0.575 | 0.371 |
| NCI-H2405 | 0.711 | 0.577 | 0.68 | 0.883 | 0.54 | 0.602 | 0.602 | 0.516 | 0.683 | 0.532 | 0.891 | 0.918 | 0.873 | 0.77 | 0.643 | 0.731 | 0.699 | 0.671 | 0.765 | 0.58 |
| NCI-H3122 | 0.0791 | 0.0919 | 0.0942 | 0.11 | 0.124 | 0.268 | 0.294 | 0.22 | 0.283 | 0.251 | 1.13 | 1.09 | 0.848 | 1.06 | 1.04 | 0.507 | 0.475 | 0.411 | 0.411 | 0.532 |
| PC-3 [JPC-3] | 0.783 | 0.645 | 0.717 | 0.825 | 0.677 | 0.779 | 0.696 | 0.622 | 0.71 | 0.539 | 1.05 | 0.956 | 0.843 | 0.856 | 0.492 | 0.781 | 0.817 | 0.755 | 0.842 | 0.659 |
| PC-14 | 0.237 | 0.279 | 0.126 | 0.233 | 0.119 | 0.7 | 0.517 | 0.197 | 0.117 | 0.101 | 1.07 | 0.996 | 0.281 | 0.143 | 0.179 | 0.193 | 0.135 | 0.117 | 0.0981 | 0.0826 |
| RERF-LC-KJ | 1.42 | 1.16 | 1.22 | 1.3 | 0.552 | 1.02 | 0.89 | 0.719 | 0.87 | 0.916 | 0.99 | 0.916 | – | 1.01 | 1.03 | 0.828 | 0.733 | 0.587 | 0.85 | 0.751 |
| SK-LU-1 | 0.178 | 0.17 | 0.207 | 0.224 | 0.179 | 0.52 | 0.485 | 0.412 | 0.446 | 0.371 | 1.21 | 0.936 | 0.588 | 0.611 | 0.564 | 0.583 | 0.652 | 0.478 | 0.675 | 0.495 |
| SK-MES-1 | 0.904 | 0.649 | 0.66 | 0.535 | 0.251 | 0.558 | 0.581 | 0.491 | 0.503 | 0.305 | 1.15 | 1.14 | 0.78 | 0.567 | 0.299 | 0.442 | 0.397 | 0.321 | 0.286 | 0.261 |
| SW 1573 | 0.219 | 0.172 | 0.297 | 0.191 | 0.143 | 0.577 | 0.645 | – | 0.545 | 0.61 | 0.762 | 0.851 | 0.533 | 0.779 | 0.406 | 0.525 | 0.424 | 0.341 | 0.582 | 0.555 |
